Results taken from patent US20190336555A1, “SYNERGISTIC DIETARY SUPPLEMENT COMPOSITIONS FOR IMPROVING BRAIN HEALTH” (LAILA NUTRACEUTICALS, priority 2016, published 2019).
Structures can show the parent of a compound that is named as a salt.

Test system: scopolamine induced memory impairment in Sprague Dawley rats
Assay: Scopolamine induced memory impairment model, Morris Water Maze
Assay type: in vivo
Details: oral, 4 days; LN16026F3 100 mg/kg, Donepezil 10 mg/kg; vs Scopolamine group
Procedure: Twenty four healthy male Sprague Dawley rats were randomized in to four groups. Animals of groups 1 and 2 were treated daily with vehicle (0.5% sodium CMC in water); group 3 with LN16026F3 (100 mg/kg) and group 4 with Donepezil Hydrochloride Monohydrate (10 mg/kg). Dementia was induced by injecting Scopolamine Hydrobromide (0.2 mg/kg) subcutaneously to G2, G3 & G4 groups. G1 group received only 1 mL/kg of normal saline (0.9% w/v sodium chloride) via subcutaneous route.
The experiment consists of 4 days of acquisition trials and one probe trial on day 5 i.e. the day after the completion of acquisition trails. Rats were allowed to swim for 120 seconds of 4 trials per day during acquisition trial in water maze to find the hidden platform. Each rat received 4 days of acquisition trials and one probe trial of 180 seconds on day 5. The movement of the animals was tracked by the SMART video tracking system. Memory retention was assessed on day 5 in which each animal received a single 180 seconds probe trial without platform in the pool. Dopamine levels were measured in tissue from hippocampal region of the brain using Elisa kit.

COc1cc2c(cc1OC)C(=O)C(CC1CCN(Cc3ccccc3)CC1)C2 (stereo not shown) [Donepezil, Donepezil Hydrochloride Monohydrate]
Target latency, Acquisition Trial: reduction in target latency
